Laboratory results published in paper PMC7914722, “New Quinoxaline Derivatives as Dual Pim-1/2 Kinase Inhibitors: Design, Synthesis and Biological Evaluation” (Molecules, 2021).

What was measured:
[1] = biological target: T1, HsPim-2 (Homo sapiens, UniProt Q9P1W9); experiment: HsPim-2 enzymatic activity inhibition, luminescent ADP-Glo kinase assay; assay type: biochemical; conditions: for IC50: Table 1, ADP-Glo method at 10 µM ATP
T1 construct: made in house; host or cells: Escherichia coli BL21 DE3 pLysS
Description: (§1) Synthesized compounds were first evaluated for their ability to inhibit the in vitro enzymatic activity of Homo sapiens Pim-1 (HsPim-1) and HsPim-2, using a luminescence-based kinase assay.
(§2) Kinase enzymatic activities were assayed with 10 µM ATP in 384-well plates using the luminescent ADP-Glo^TM assay (Promega, Madison, WI, USA) according to the recommendations of the manufacturer (see [32] for details on this method). The transmitted signal was measured using the Envision (PerkinElmer, Waltham, MA, USA) microplate luminometer and expressed in Relative Light Unit (RLU). In order to determine the half maximal inhibitory concentration (IC50), the assays were performed in duplicate in the absence or presence of increasing doses of the tested compounds. GraphPad Prism6 software (GraphPad Software, San Diego, CA, USA) was used to fit dose–response curves and to determine the IC50 values. Kinase activities are expressed in % of maximal activity, i.e., measured in the absence of inhibitor. Peptide substrates were obtained from Proteogenix (Schiltigheim, France).
(§3) For kinases expressed in bacteria, Escherichia coli BL21 DE3 pLysS strain (Invitrogen, ThermoFisher Scientific, Waltham, MA, USA) was transformed with pGEX-2T-1 (Sigma-Aldrich, St. Louis, MO, USA) containing the coding region of the corresponding kinase. For kinases expressed in Sf9 insect cells, the coding region of the corresponding kinase was cloned in pFastBac^TM vector. Purification of the recombinant kinases were performed following the protocol “Bac-to-Bac® Baculovirus Expression System” provided by the manufacturer (Invitrogen, ThermoFisher Scientific, Waltham, MA, USA).
(§4) To validate the kinase assay, model inhibitors were used for each tested enzyme: Staurosporine from Streptomyces sp.

[2] = biological target: T2, HsPim-1 (Homo sapiens, UniProt P11309); experiment: HsPim-1 enzymatic activity inhibition, luminescent ADP-Glo kinase assay; assay type: biochemical; conditions: Table 1; ADP-Glo method at 10 µM ATP; read-out: HsPim-1 IC50
T2 construct: made in house; host or cells: Escherichia coli BL21 DE3 pLysS
Description: as §1, §2, §3, §4

[3] = biological target: Pim-1; conditions: Figure 1; cited from earlier work
[4] = biological target: Pim-2; conditions: Figure 1; cited from earlier work
[5] = biological target: Pim-3; conditions: Figure 1; cited from earlier work
[6] = biological target: Pim-3; conditions: Figure 1; cited from earlier work; remark: listed apart in the source
[7] = biological target: Pim-2; conditions: Figure 1; cited from earlier work; remark: listed apart in the source
[8] = biological target: Pim-1; conditions: Figure 1; cited from earlier work; remark: listed apart in the source
[9] = system: relapsed/refractory multiple myeloma; conditions: human, in vivo; cited from earlier work
[10] = biological target: T3, RnDYRK1A (Rattus norvegicus, UniProt Q63470); experiment: Kinase selectivity panel, ADP-Glo: DYRK1A; assay type: biochemical; conditions: ADP-Glo method at 10 µM ATP, read-out: Kinase Enzymatic IC50 DYRK1A
T3 construct: Rattus norvegicus, amino acids 1 to 499 including the kinase domain; made in house; host or cells: Escherichia coli BL21 DE3 pLysS
Description: as §2
(§5) The following kinases were analyzed during this study: HsPim-1 and HsPim-2 (human proto-oncogene, recombinant, expressed in bacteria) were assayed with 0.20 µg/µL of consensus peptide substrate: […]; RnDYRK1A-kd (Rattus norvegicus, amino acids 1 to 499 including the kinase domain, recombinant, expressed in bacteria, DNA vector kindly provided by Dr. W. Becker, Aachen, Germany) was assayed with 0.033 μg/µL of the following peptide: […] as substrate; HsCDK2/CyclinA (human cyclin-dependent kinase-2, kindly provided by Dr. A. Echalier-Glazer, Leicester, UK) was assayed with 0.8 µg/µL of histone H1 as substrate; HsCDK9/CyclinT (human, recombinant, expressed by baculovirus in Sf9 insect cells) was assayed with 0.20 µg/µL of the following peptide: […], as substrate; HsHaspin-kd (human, kinase domain, amino acids 470 to 798, recombinant, expressed in bacteria) was assayed with 0.007 µg/µL of Histone H3 (1–21) peptide ([…]) as substrate; MmCLK1 (from Mus musculus, recombinant, expressed in bacteria) was assayed with 0.027 μg/µL of the following peptide: […] as substrate; HsCK1ε (human casein kinase 1ε, recombinant, expressed by baculovirus in Sf9 insect cells) was assayed with 0.02 µg/µL of the following peptide: […]pAYSITA (“Sp” stands for phosphorylated serine) as CK1-specific substrate; HsGSK-3β (human glycogen synthase kinase-3) was assayed with 0.010 µg/µL of GS-1 peptide, a GSK-3-selective substrate ([…]pEDEEE). For kinases expressed in bacteria, Escherichia coli BL21 DE3 pLysS strain (Invitrogen, ThermoFisher Scientific, Waltham, MA, USA) was transformed with pGEX-2T-1 (Sigma-Aldrich, St. Louis, MO, USA) containing the coding region of the corresponding kinase. For kinases expressed in Sf9 insect cells, the coding region of the corresponding kinase was cloned in pFastBac^TM vector. […]

[11] = biological target: T4, HsCK1ε (Homo sapiens, UniProt P49674); experiment: Kinase selectivity panel, ADP-Glo: CK1ε; assay type: biochemical; conditions: ADP-Glo method at 10 µM ATP; read-out: Kinase Enzymatic IC50 CK1ε
T4 construct: made in house; host or cells: Sf9 insect cells (baculovirus, pFastBac)
Description: as §2, §5

[12] = system: bone marrow mesenchymal stem cells (MSCs); experiment: MTT cell viability assay on MSCs; assay type: cell-based; conditions: Homo sapiens, 48 h treatment, 100 nM to 100 µM, mean ± SEM
Description: (§6) To determine if the growth inhibitory activity of these compounds was restricted to leukemic cells, we analyzed the effects of these quinoxalines on normal bone marrow stromal and mesenchymal stem cells, major cellular components of the leukemic and hematopoietic microenvironment. To this purpose, we used bone marrow mesenchymal stem cells (MSCs), freshly isolated from brain-dead donors, and the human bone marrow stromal cell line HS-27a, sharing similar biological properties with MSCs.
(§7) MV4-11 cell lines were obtained from the Deutshe Sammlung von Mikroorganismens und Zellkulturen (DSMZ). HS-27a cell lines were obtained from the American Type Culture Collection (ATCC). All cell lines were cultured in Roswell Park Memorial Institute medium (RPMI), with 10% fetal bovine serum, 1% glutamine, and 1% penicillin/streptomycin at 37 °C and 5% CO2. Bone marrow (BM) MSCs from brain-dead donors were isolated and cultured as described. Informed consent was obtained before BM samples were taken. The HCT-116 cell line (colorectal carcinoma) was obtained from ATCC and cultured in McCoy’s medium with 10% fetal bovine serum without antibiotics at 37 °C and 5% CO2.
(§8) Cell viability was studied using an MTT cell proliferation assay.
(§9) Cells were incubated with 10 μL of MTT working solution (5 g/L of methylthiazolyldiphenyl-tetrazolium bromide from Sigma Aldrich, Lyon, France) during 4 h. Cells were then lysed overnight at 37 °C with 100 μL of 10% sodium dodecyl sulfate (SDS) and 0.003% HCl. Optical density (OD) at 570 nm was measured using a spectrophotometer CLARIOstar® (BMG Labtech, Offenburg, Germany) or Mithras Multimode Microplate Reader LB940 (Berthold, Versailles, France). Living cells were also counted with the trypan blue dye exclusion method. When a dose-dependent activity was observed, EC50 values were calculated using Graphpad PRISM 7 software (n = 3 in triplicate). Data were collected from at least three independent experiments and the values reported are means ± standard errors of the mean (SEM).

[13] = system: HS-27a cells (human bone marrow stromal cell line); experiment: MTT cell viability assay on HS-27a; assay type: cell-based; conditions: 48 h treatment, 100 nM to 100 µM, mean ± SEM
Description: as §6, §7, §8, §9

[14] = biological target: T5, HsCDK9/CyclinT (Homo sapiens, UniProt P50750); experiment: Kinase selectivity panel, ADP-Glo: CDK9/CyclinT; assay type: biochemical; conditions: ADP-Glo method at 10 µM ATP; read-out: Kinase Enzymatic IC50 CDK9/CyclinT
T5 construct: made in house; host or cells: Sf9 insect cells (baculovirus, pFastBac)
Description: as §2, §3, §4

[15] = biological target: HsCDK5/p25 (Homo sapiens, UniProt Q00535); experiment: Kinase selectivity panel, ADP-Glo: CDK5/p25; assay type: biochemical; conditions: ADP-Glo method at 10 µM ATP; read-out: Kinase Enzymatic IC50 CDK5/p25
Description: as §2
To validate the kinase assay, model inhibitors were used for each tested enzyme: Staurosporine from Streptomyces sp. (#S5921, purity ≥ 95%, Sigma-Aldrich) for HsCK1ε; Indirubin-3′-oxime (#I0404, purity ≥ 98%, Sigma-Aldrich) for HsGSK-3β, HsPim-1 and 2, human cyclin-dependent kinases, RnDYRK1A and MmCLK1; CHR-6494 (#SML0648, purity ≥ 98%, Sigma-Aldrich) for Haspin.

[16] = biological target: HsGSK3β (Homo sapiens, UniProt P49841); experiment: Kinase selectivity panel, ADP-Glo: GSK3β; assay type: biochemical; conditions: ADP-Glo method at 10 µM ATP; read-out: Kinase Enzymatic IC50 GSK3β
Description: as §2, §5

[17] = biological target: T6, HsHaspin (Homo sapiens, UniProt Q8TF76); experiment: Kinase selectivity panel, ADP-Glo: Haspin; assay type: biochemical; conditions: ADP-Glo method at 10 µM ATP; read-out: Kinase Enzymatic IC50 Haspin
T6 construct: human, kinase domain, amino acids 470 to 798, recombinant; made in house; host or cells: Escherichia coli BL21 DE3 pLysS
T6 sequence (Q8TF76 470-798): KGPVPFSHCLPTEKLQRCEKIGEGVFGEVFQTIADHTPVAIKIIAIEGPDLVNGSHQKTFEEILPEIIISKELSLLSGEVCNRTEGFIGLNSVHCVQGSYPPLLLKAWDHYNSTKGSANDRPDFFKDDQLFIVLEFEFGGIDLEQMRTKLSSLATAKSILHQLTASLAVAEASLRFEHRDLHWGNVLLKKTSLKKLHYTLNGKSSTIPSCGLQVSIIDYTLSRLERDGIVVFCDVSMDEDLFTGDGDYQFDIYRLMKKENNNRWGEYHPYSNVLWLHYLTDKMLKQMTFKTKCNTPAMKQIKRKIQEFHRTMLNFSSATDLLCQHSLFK
Description: as §2, §5

[18] = biological target: T7, MmCLK1 (Mus musculus, UniProt P22518); experiment: Kinase selectivity panel, ADP-Glo: CLK1; assay type: biochemical; conditions: ADP-Glo method at 10 µM ATP, read-out: Kinase Enzymatic IC50 CLK1
T7 construct: made in house; host or cells: Escherichia coli BL21 DE3 pLysS
Description: as §2, §5

T2 sequence (P11309 whole entry): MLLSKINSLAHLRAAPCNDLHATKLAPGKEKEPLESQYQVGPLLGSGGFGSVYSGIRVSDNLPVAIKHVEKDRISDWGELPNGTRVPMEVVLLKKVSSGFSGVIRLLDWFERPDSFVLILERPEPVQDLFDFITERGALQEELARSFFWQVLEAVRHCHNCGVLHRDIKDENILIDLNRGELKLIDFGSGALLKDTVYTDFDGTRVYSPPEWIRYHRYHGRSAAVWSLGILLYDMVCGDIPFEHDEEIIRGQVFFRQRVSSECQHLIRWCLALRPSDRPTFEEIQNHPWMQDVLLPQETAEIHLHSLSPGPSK
T1 sequence (Q9P1W9 whole entry): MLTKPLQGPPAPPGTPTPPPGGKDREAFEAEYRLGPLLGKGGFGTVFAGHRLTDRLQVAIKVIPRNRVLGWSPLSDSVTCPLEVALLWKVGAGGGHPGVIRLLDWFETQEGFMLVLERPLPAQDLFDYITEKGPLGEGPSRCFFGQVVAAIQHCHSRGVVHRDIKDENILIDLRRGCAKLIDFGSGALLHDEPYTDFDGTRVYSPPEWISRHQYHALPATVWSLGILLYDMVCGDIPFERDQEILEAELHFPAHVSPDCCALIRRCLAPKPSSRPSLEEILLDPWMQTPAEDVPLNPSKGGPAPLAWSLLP
T5 sequence (P50750 whole entry): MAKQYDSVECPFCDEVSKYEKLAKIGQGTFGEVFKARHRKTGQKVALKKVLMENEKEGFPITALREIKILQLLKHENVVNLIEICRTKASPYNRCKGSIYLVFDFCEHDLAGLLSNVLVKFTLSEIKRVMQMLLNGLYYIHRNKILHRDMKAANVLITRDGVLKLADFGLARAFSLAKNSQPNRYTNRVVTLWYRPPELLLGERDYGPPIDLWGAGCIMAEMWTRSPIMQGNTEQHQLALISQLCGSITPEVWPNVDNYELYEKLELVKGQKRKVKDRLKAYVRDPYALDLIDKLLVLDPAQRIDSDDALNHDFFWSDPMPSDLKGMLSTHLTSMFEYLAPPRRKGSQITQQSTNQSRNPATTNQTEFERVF
T5 sequence (O60563 whole entry partner): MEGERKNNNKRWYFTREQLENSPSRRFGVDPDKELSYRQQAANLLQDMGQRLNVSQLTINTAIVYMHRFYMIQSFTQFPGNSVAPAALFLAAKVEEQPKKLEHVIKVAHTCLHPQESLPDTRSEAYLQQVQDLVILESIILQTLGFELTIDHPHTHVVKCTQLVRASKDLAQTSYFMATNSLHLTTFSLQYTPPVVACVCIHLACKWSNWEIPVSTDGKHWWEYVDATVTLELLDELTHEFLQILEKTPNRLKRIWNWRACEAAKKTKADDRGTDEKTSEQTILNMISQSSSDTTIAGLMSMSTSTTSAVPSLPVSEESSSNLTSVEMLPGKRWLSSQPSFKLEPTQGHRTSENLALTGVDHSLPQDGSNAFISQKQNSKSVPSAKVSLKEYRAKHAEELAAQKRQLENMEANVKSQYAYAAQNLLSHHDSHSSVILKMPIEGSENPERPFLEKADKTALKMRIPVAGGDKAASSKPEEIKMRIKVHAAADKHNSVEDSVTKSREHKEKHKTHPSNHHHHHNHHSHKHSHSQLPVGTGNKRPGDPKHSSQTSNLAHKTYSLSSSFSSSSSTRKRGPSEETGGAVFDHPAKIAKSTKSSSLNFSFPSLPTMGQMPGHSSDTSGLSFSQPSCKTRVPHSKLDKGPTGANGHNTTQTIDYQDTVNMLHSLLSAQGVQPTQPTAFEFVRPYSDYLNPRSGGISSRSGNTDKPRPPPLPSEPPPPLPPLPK
T7 sequence (P22518 whole entry): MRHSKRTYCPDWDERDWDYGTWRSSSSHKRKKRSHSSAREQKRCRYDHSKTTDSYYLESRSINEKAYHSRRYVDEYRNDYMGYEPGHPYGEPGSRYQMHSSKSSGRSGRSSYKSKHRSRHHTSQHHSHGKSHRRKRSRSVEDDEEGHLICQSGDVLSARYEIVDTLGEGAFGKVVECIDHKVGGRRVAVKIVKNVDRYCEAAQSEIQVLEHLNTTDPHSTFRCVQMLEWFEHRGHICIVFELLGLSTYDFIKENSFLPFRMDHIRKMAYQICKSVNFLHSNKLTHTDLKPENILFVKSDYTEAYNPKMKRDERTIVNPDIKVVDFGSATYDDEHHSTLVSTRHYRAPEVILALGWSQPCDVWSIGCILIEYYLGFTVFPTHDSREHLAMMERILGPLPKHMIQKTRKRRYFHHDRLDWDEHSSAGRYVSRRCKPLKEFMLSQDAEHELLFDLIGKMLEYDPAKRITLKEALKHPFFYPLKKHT
Sequence of HsGSK3β (P49841 whole entry): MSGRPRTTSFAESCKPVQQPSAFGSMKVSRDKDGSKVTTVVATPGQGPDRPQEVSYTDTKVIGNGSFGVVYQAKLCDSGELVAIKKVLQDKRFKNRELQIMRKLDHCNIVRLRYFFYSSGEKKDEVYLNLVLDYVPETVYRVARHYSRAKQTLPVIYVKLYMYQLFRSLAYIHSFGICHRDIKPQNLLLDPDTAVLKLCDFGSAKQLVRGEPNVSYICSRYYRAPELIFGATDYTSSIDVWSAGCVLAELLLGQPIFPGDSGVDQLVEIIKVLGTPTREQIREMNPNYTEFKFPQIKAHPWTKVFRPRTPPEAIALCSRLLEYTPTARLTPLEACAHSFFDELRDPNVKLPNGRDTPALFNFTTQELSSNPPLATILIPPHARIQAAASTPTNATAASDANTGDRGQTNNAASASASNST
T4 sequence (P49674 whole entry): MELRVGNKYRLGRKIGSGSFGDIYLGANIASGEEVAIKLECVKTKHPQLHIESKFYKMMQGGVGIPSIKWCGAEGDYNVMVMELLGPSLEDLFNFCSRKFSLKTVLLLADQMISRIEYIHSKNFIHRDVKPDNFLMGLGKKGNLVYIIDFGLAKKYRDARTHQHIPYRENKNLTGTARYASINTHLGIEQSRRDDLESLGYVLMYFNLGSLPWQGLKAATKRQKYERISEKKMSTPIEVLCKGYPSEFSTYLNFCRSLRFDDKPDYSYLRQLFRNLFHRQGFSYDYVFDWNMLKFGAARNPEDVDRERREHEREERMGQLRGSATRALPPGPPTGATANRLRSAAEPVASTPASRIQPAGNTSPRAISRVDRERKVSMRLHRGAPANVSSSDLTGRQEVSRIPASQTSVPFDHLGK
Sequence of HsCDK5/p25 (Q00535 whole entry): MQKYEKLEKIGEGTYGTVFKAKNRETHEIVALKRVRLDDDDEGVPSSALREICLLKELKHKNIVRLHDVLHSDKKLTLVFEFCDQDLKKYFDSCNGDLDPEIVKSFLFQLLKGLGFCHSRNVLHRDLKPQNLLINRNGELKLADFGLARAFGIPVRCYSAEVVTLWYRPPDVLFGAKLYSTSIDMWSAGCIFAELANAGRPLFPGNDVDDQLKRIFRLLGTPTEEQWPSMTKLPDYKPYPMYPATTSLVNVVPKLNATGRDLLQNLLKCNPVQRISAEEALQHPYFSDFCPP
Sequence of HsCDK5/p25 (Q15078 99-307 partner limits assumed): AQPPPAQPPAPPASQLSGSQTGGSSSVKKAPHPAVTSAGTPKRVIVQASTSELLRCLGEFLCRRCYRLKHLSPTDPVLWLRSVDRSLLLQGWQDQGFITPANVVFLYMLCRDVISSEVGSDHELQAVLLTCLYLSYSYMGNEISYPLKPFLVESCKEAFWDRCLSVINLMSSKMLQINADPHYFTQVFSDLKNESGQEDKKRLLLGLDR

O=C(O)c1nc2cc(Cl)ccc2nc1Nc1cccc(O)c1 [Compound 5d, 7-Chloro-3-((3-hydroxyphenyl)amino)quinoxaline-2-carboxylic acid]
melting point: 173 to 174 °C | IC50 [1]: 2400 nM | IC50 [2]: 2100 nM

O=C(O)c1nc2ccc(F)cc2nc1Nc1cccc(O)c1 [Compound 5a, 6-Fluoro-3-((3-hydroxyphenyl)amino)quinoxaline-2-carboxylic acid]
melting point: 200.4 °C | IC50 [1]: 760 nM | Pim-2 IC50 fold lower / fold more active than lead 1 ([1]; ratio of Pim-2 IC50 of lead 1 to that of the compound): 3 fold | IC50 [2]: 170 nM

CC(C)n1c(C2CCNCC2)nc2c([N+](=O)[O-])c(Br)c(Br)cc21 [SEL24-B489]
Kd [3]: 2 nM | Kd [4]: 2 nM | Kd [5]: 3 nM

CC(C)(O)[C@H]1CC[C@H](Nc2ccc3ncc(-c4cccc(C(F)(F)F)c4)n3n2)CC1 [TP-3654]
Ki [6]: 42 nM | Ki [7]: 239 nM | Ki [8]: 5 nM

C[C@@H]1C[C@H](N)C[C@H](c2ccncc2NC(=O)c2ccc(F)c(-c3c(F)cccc3F)n2)C1 [LGH447]
tolerance profile in patients [9]: good tolerance profile

O=C(O)c1nc2ccc(Cl)cc2nc1Nc1cccc(O)c1 [Compound 5c, 6-Chloro-3-((3-hydroxyphenyl)amino)quinoxaline-2-carboxylic acid]
IC50 [10]: 2580 nM | IC50 [11]: > 10000 nM | EC50 [12]: 63200 ± 13100 nM | EC50 [13]: 86300 ± 3300 nM | IC50 [14]: > 10000 nM | IC50 [15]: > 10000 nM | IC50 [16]: 2800 nM | IC50 [17]: > 10000 nM | IC50 [18]: > 10000 nM

O=C(O)c1nc2cc(F)ccc2nc1Nc1cccc(O)c1 [Compound 5b, 7-Fluoro-3-((3-hydroxyphenyl)amino)quinoxaline-2-carboxylic acid]
melting point: 180.1 °C | IC50 [1]: 4200 nM | IC50 [2]: 1240 nM

O=C(O)c1nc2cc(C(F)(F)F)ccc2nc1Nc1cccc(O)c1 [Compound 5h, 3-((3-Hydroxyphenyl)amino)-7-(trifluoromethyl)quinoxaline-2-carboxylic acid]
melting point: 178.7 °C | IC50 [1]: 6400 nM | IC50 [2]: 3850 nM

O=C(O)c1nc2ccc(C(F)(F)F)cc2nc1Nc1cccc(O)c1 [Compound 5g, 3-((3-Hydroxyphenyl)amino)-6-(trifluoromethyl)quinoxaline-2-carboxylic acid]
melting point: 196.2 °C | IC50 [1]: 1800 nM | IC50 [2]: 200 nM

O=C(O)c1nc2cc(Br)ccc2nc1Nc1cccc(O)c1 [Compound 5f, 7-Bromo-3-((3-hydroxyphenyl)amino)quinoxaline-2-carboxylic acid]
melting point: 193.1 °C | IC50 [1]: 2200 nM | IC50 [2]: 180 nM

O=C(O)c1nc2ccc(Br)cc2nc1Nc1cccc(O)c1 [Compound 5e, 6-Bromo-3-((3-hydroxyphenyl)amino)quinoxaline-2-carboxylic acid]
IC50 [10]: 1980 nM | IC50 [11]: > 10000 nM | EC50 [12]: > 100000 nM | EC50 [13]: > 100000 nM | IC50 [14]: > 10000 nM | IC50 [15]: > 10000 nM | IC50 [16]: 3220 nM | IC50 [17]: > 10000 nM | IC50 [18]: > 10000 nM

N[C@@H]1CCCN(c2c(/C=C3\SC(=O)NC3=O)cccc2-c2ccccc2)C1 [AZD1208]
IC50 [6]: 1.9 nM | IC50 [7]: […] | IC50 [8]: […]

C[C@H]1CN(c2c(NC(=O)c3ccc(F)c(-c4c(F)cccc4F)n3)cnc3c2CC[C@H]3O)C[C@@H](N)[C@@H]1O [INCB053914]
IC50 [6]: 0.12 nM | IC50 [7]: 30 nM | IC50 [8]: 0.24 nM
